Columns and labels:
[1] = tested on: HAP1 MTAP-deleted cell line; test: Viability assay, MTAP-deleted cell line; type: cell-based; settings: Homo sapiens, read-out: HAP1 MTAP deleted viability
Text: Table 1 additionally indicates IC50 values in a viability assay for the MTAP-deleted cell line (column 10), indicating the effect of treatment with compound on cell survival.

[2] = tested on: HAP1 MTAP-intact cell line; test: SDMA in-cell western assay, HAP1 MTAP-intact; type: cell-based; settings: Homo sapiens, HAP1, SDMA in-cell western, HAP1 MTAP-intact; read-out: MTAP HAP1 intact IC50
Summary of the method: (§1)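 IC50 values come from SDMA signal quantified by in-cell western in two HAP1 lines, one with native MTAP levels and one lacking MTAP.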

PRMT5 [3] = target: T1, PRMT5 (Homo sapiens, UniProt O14744); test: PRMT5 biochemical IC50 assay with no cofactor; settings: PRMT5, no cofactor
T1 construct: purchased Viva (custom protein)
T1 sequence (O14744 whole entry): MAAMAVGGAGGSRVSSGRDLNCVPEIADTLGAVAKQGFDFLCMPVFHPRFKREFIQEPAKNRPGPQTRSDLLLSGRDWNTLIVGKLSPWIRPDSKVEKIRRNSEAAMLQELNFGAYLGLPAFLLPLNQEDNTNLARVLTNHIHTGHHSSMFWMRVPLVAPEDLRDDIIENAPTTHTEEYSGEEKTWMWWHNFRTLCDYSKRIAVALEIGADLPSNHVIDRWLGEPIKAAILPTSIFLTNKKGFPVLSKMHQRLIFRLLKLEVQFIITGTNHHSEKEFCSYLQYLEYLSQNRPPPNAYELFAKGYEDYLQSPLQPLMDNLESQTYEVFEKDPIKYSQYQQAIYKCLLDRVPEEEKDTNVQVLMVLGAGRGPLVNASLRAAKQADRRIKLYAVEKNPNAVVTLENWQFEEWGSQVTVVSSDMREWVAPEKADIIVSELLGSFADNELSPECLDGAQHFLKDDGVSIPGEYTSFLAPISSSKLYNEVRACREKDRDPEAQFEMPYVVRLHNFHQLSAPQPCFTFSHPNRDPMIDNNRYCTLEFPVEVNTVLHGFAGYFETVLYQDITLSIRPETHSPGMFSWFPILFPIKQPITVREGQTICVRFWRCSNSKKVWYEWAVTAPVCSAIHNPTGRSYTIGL
T1 sequence (Q9BQA1 whole entry partner): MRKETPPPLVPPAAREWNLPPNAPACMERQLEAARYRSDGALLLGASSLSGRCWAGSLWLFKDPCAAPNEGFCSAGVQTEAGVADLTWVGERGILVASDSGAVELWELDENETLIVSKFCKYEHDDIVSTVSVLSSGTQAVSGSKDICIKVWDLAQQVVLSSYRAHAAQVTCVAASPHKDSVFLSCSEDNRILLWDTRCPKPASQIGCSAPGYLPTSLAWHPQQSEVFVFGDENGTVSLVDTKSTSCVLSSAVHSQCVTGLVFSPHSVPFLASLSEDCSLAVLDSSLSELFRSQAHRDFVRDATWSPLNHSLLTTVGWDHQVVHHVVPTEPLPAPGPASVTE
Text: Table 1 indicates IC50 values (μM) against PRMT5 for exemplary compounds in the presence of SAM as cofactor, with no cofactor, and with MTA as cofactor, respectively (columns 4-6). […] Ki values can be calculated from the IC50 values as described in the Examples section. As detailed in the Examples section, for the assay performed in the presence of SAM, IC50=Ki×1.5 (Ki=IC50/1.5).

[4] = tested on: HAP1 MTAP-deleted cell line; test: SDMA in-cell western assay, HAP1 MTAP-deleted; type: cell-based; settings: for IC50: Homo sapiens, HAP1, SDMA in-cell western, HAP1 MTAP-deleted; for MTAP intact/deleted ratio: SDMA in-cell western
Summary of the method: as §1

PRMT5 [5] = target: T1, PRMT5; test: PRMT5 biochemical IC50 assay with SAM as cofactor; settings: PRMT5, SAM as cofactor; read-out: SAM IC50
PRMT5 [6] = target: T1, PRMT5; test: PRMT5 biochemical IC50 assay with MTA as cofactor; settings: PRMT5, MTA as cofactor; read-out: MTA IC50
[7] = HAP1, viability assay, HAP1 MTAP-deleted
[8] = read-out: HAP1 MTAP deleted IC50
[9] = IC50 ratio HAP1 MTAP-intact / HAP1 MTAP-deleted
[10] = HAP1, viability assay, MTAP-deleted cell line
[11] = HAP1, viability IC50, MTAP-deleted cell line
[12] = read-out: HAP 1 MTAP deleted IC50
[13] = read-out: No Cofactor/ rel IC50

Row | SMILES | IC50 [2] [µM] | IC50 (PRMT5 [3]; read-out: No Cofactor/rel IC50) [µM] | IC50 [4, 8] [µM] | IC50 (PRMT5 [5]) [µM] | IC50 (PRMT5 [6]) [µM] | IC50 [4, 12] [µM] | IC50 (PRMT5 [3]; [13]) [µM] | IC50 [1, 7] [µM] | MTAP intact/deleted ratio [4, 9] | IC50 [1, 10] [µM] | MTAP intact/deleted ratio ([4]; IC50 ratio HAP1 MTAP-intact vs HAP1 MTAP-deleted) | IC50 [1, 11] [µM]
1 | CNC(=O)N1CCCC([C@@H]2CC[C@@H](C)CN2C(=O)C(=O)Nc2cnc(N)c(C)c2)C1 (mixture of isomers) [Compound 814, 1-(2-((6-amino-5-methylpyridin-3-yl)amino)-2-oxoacetyl)-N,5-dimethyl-[2,3′-bipiperidine]-1′-carboxamide] | > 1 | 0.05 to 0.5 | 0.1 to 1 | 0.05 to 0.5 | 0.05 to 0.5 | – | – | > 10 | A (an IC50 ratio greater than or equal to 10 fold) | – | – | –
2 | Cc1cnc(N)c(NC(=O)C(=O)N2CCCCC2c2ccccc2)c1 (stereo not drawn) [Compound 160, N-(2-amino-5-methylpyridin-3-yl)-2-oxo-2-(2-phenylpiperidin-1-yl)acetamide] | > 1 | – | – | > 0.5 | > 0.5 | > 1 | > 0.5 | – | C (an IC50 ratio of less than 3 fold) | > 10 | – | –
3 | Cc1ncc(NC(=O)C(=O)N2C[C@H](C)CC[C@H]2c2ccc3c(c2)CCC(=O)N3)cc1C(F)(F)F (single isomer, unassigned) [Compound 697] | > 1 | < 0.05 | – | 0.05 to 0.5 | < 0.05 | < 0.1 | – | – | A (an IC50 ratio greater than or equal to 10 fold) | – | – | < 1
4 | CCc1cc(NC(=O)C(=O)N2C[C@H](C)CC[C@H]2c2ccc3c(c2)CCC(=O)N3)cnc1N (single isomer, unassigned) [Compound 720] | 0.1 to 1 | < 0.05 | < 0.1 | 0.05 to 0.5 | < 0.05 | – | – | < 1 | A (an IC50 ratio greater than or equal to 10 fold) | – | – | –
5 | Cc1cc(NC(=O)C(=O)N2C[C@H](C)CC[C@H]2c2ccn(-c3ccn[nH]3)n2)cnc1N (racemic) [Compound 715, 2-(2-(1′H-[1,3′-bipyrazol]-3-yl)-5-methylpiperidin-1-yl)-N-(6-amino-5-methylpyridin-3-yl)-2-oxoacetamide] | > 1 | 0.05 to 0.5 | < 0.1 | > 0.5 | 0.05 to 0.5 | – | – | 1 to 10 | A (an IC50 ratio greater than or equal to 10 fold) | – | – | –

Second part, led by results:

Row | IC50 [2] [µM] | IC50 (PRMT5 [3]; read-out: No Cofactor/rel IC50) [µM] | IC50 [4, 8] [µM] | IC50 (PRMT5 [5]) [µM] | IC50 (PRMT5 [6]) [µM] | IC50 [4, 12] [µM] | IC50 (PRMT5 [3]; [13]) [µM] | SMILES | IC50 [1, 7] [µM] | MTAP intact/deleted ratio [4, 9] | IC50 [1, 10] [µM] | MTAP intact/deleted ratio ([4]; IC50 ratio HAP1 MTAP-intact vs HAP1 MTAP-deleted) | IC50 [1, 11] [µM]
6 | 0.1 to 1 | < 0.05 | < 0.1 | 0.05 to 0.5 | < 0.05 | – | – | Cc1cc(NC(=O)C(=O)N2C[C@@H](C)[C@@H](OC(F)(F)F)C[C@@H]2c2ccc(F)cc2)cnc1N (single isomer, unassigned) [Compound 1213] | – | – | < 1 | A (an IC50 ratio greater than or equal to 10 fold) | –
7 | > 1 | > 0.5 | – | > 0.5 | > 0.5 | > 1 | – | C[C@H]1CC[C@H]([C@@H]2CCC[C@H](O)C2)N(C(=O)C(=O)Nc2cncc(C(N)=O)c2)C1 (single isomer, unassigned) [Compound 529] | – | C (an IC50 ratio of less than 3 fold) | – | – | > 10
8 | > 1 | 0.05 to 0.5 | – | 0.05 to 0.5 | < 0.05 | < 0.1 | – | Cc1ccc([C@H]2CC(F)(F)[C@H](C)CN2C(=O)C(=O)Nc2cncc(C(N)=O)c2)cn1 (single isomer, unassigned) [Compound 974] | – | A (an IC50 ratio greater than or equal to 10 fold) | 1 to 10 | – | –
9 | > 1 | – | – | > 0.5 | 0.05 to 0.5 | 0.1 to 1 | > 0.5 | C[C@H]1CC[C@H](C2CCCCC2)N(C(=O)C(=O)Nc2cncc(C(N)=O)c2)C1 (single isomer, unassigned) [Compound 117] | – | A (an IC50 ratio greater than or equal to 10 fold) | > 10 | – | –

Source: US11999727B2 (Tango Therapeutics, Inc., priority 2020, dated 2024)
